Source: US20240342203A1, “COMPOSITIONS FOR ORAL CANCER OR AN OROPHARYNGEAL CANCER” (GR BIOSYSTEMS, INC., priority 2020, published 2024)
“Also recorded” adds a separate entry of the source.

Experiments:
MMP-2 = assay: Western blot of MMP-2 protein expression/release in Cal-27 cells treated with PGG; assay type: cell-based; conditions: 48 hours, cell media
Description: (§1) Squamous cell carcinoma cells (Cal 27) were purchased from ATCC (CRL-2095) and grown in DMEM with Glutamax, 10% FBS and Penicillin/Streptomycin (1055-024, 15140-122, 10438-018 Gibco-ThermoFischer Scientific) and kept at 37° C. in a humidified air chamber with 5% CO2. Cells were seeded at 3×10^5 cells/flask for the experiments and then grown to confluency. Cells between 3 and 10 passages were used for all experiments. 1,2,3,4,6-Penta-O-galloyl-β-D-glucose (G7548, Sigma-Aldrich) was dissolved in dimethylsulfoxide (DMSO) to obtain a 100 mM stock solution. Subsequent dilutions were done using water, and no flask contained more than 0.5 μL of DMSO (0.01%). […] During the protein extraction, media were collected, flash frozen and saved for BCA, Western Blot, and ELISA analysis. […] The proteins were detected and visualized by fluorescence using the LI-COR Odyssey Classic Infrared Imaging system (LI-COR Biosciences). Densitometry analysis of specific bands was performed with the Image Studio software provided by LI-COR Biosciences and the images analyzed using ImageStudio (LI-COR Biosciences). Statistical analysis, including one-way ANOVA with Dunnett's Multiple Comparison Test and Bonferroni, was done using GraphPad Prism 7 (Graph-Pad Software, La Jolla, CA, USA). p values were calculated using the unpaired two-sided Student's t test to compare groups, with statistical significance set at p<0.05.

MMP-9 = assay: Western blot of MMP-9 protein expression/secretion in Cal-27 cells treated with PGG; assay type: cell-based; conditions: 48 hours
Description: as §1

MMP-13 = assay: Western blot of MMP-13 protein expression/release in Cal-27 cells treated with PGG; assay type: cell-based; conditions: 48 hours
Description: as §1

Stat3 = assay: Western blot of Stat3 and pStat3 in Cal-27 cells treated with PGG; assay type: cell-based; conditions: 48 hours
Description: as §1

MMP-2 gene = assay: Real time quantitative PCR of MMP-2 gene expression in Cal-27 cells; assay type: cell-based, Human
Description: (§2) Squamous cell carcinoma cells (Cal 27) were purchased from ATCC (CRL-2095) and grown in DMEM with Glutamax, 10% FBS and Penicillin/Streptomycin (1055-024, 15140-122, 10438-018 Gibco-ThermoFischer Scientific) and kept at 37° C. in a humidified air chamber with 5% CO2. Cells were seeded at 3×10^5 cells/flask for the experiments and then grown to confluency. Cells between 3 and 10 passages were used for all experiments. 1,2,3,4,6-Penta-O-galloyl-β-D-glucose (G7548, Sigma-Aldrich) was dissolved in dimethylsulfoxide (DMSO) to obtain a 100 mM stock solution. Subsequent dilutions were done using water, and no flask contained more than 0.5 μL of DMSO (0.01%). […] After washing the tissue culture with 1× phosphate buffered saline (PBS), the cells were lysed, and the RNA purified using a Qiagen RNeasy mini kit using the manufacturer's recommended protocol. All samples were treated with Qiagen DNase. One microgram of RNA was used for reverse transcription and subsequent SYBR® Green real time PCR for the genes of interest as previously described. […] Real time quantitative PCR was performed using an Applied Biosciences StepOne plus instrument and analyzed with StepOne software v2.3. The relative amounts of transcripts from each gene were normalized to reference gene GAPDH and calculated as follows: ΔΔCT=the average ΔCT of […]−the average ΔCT of […], and their fold difference=2−ΔΔCT.

MMP-9 gene = assay: Real time quantitative PCR of MMP-9 gene expression in Cal-27 cells; assay type: cell-based, Human; conditions: any PGG dose (1, 2.5, 5, 10 and 20 μM), n=4, p>0.05
Description: as §2

MMP-13 gene = assay: Real time quantitative PCR of MMP-13 gene expression in Cal-27 cells; assay type: cell-based, Human; conditions: 10 or 20 μM PGG, p<0.05 and p<0.001
Description: as §2

MMP-14 gene = assay: Real time quantitative PCR of MMP-14 gene expression in Cal-27 cells; assay type: cell-based, Human; conditions: PGG 10-20 μM
Description: as §2

Cal 27 cells = assay: Transmembrane/Boyden Matrigel invasion assay; assay type: cell-based; conditions: for percentage of cells invading the membrane compared with untreated control: 24 hour treatment; for Number of cells invading through Matrigel: 24 hour
Description: Squamous cell carcinoma cells (Cal 27) were purchased from ATCC (CRL-2095) and grown in DMEM with Glutamax, 10% FBS and Penicillin/Streptomycin (1055-024, 15140-122, 10438-018 Gibco-ThermoFischer Scientific) and kept at 37° C. in a humidified air chamber with 5% CO2. Cells were seeded at 3×10^5 cells/flask for the experiments and then grown to confluency. Cells between 3 and 10 passages were used for all experiments. Transmembrane/Boyden assay plates with Matrigel were purchased from Corning. DMEM with 10% FBS was used as a chemoattractant in the lower chamber while the cells in the upper chamber were cultured in DMEM with 1% FBS. Wells were prepared with different concentrations of PGG (0-10 μM) and left to incubate for 24 hour. After 24 hour media has discarded and the cells invading the Matrigel were counted according to established protocols.

TNF-α = conditions: doses as low as 5 μM; cited from earlier work
[1] = tested on: peripheral blood mononuclear cells (PBMCs); conditions: PBMCs treated with PGG; cited from earlier work
[2] = tested on: toll-like receptors 4 (TLR4); conditions: peritoneal and colonic macrophages; cited from earlier work
MyD88 adaptor protein = conditions: peritoneal and colonic macrophages; cited from earlier work

## O=C(OC[C@H]1O[C@@H](OC(=O)c2cc(O)c(O)c(O)c2)[C@H](OC(=O)c2cc(O)c(O)c(O)c2)[C@@H](OC(=O)c2cc(O)c(O)c(O)c2)[C@@H]1OC(=O)c1cc(O)c(O)c(O)c1)c1cc(O)c(O)c(O)c1 [PGG, 1,2,3,4,6-penta-O-galloyl-β-D-glucose]
MMP-2; Cal-27 cells, 10 μM PGG, n=4, p<0.01
  MMP-2 expression vs non-treated group: significantly decreased; also recorded: significantly lower
MMP-2; Cal-27 cells, 1, 2.5 or 5 μM PGG, n=4, p>0.05
  MMP-2 expression vs non-treated group: not significantly different
MMP-9; 1 or 2.5 μM PGG, normalized to Histone H3, n=4, p>0.05
  MMP-9 expression vs non-treated group: not significantly different
MMP-9; 5 or 10 μM PGG, normalized to Histone H3, n=4, p<0.05 and p<0.01
  MMP-9 expression vs non-treated group: significantly decreased; also recorded: significantly lower
MMP-13; Cal-27 cells, 10 μM PGG, normalized to Histone H3, n=4, p<0.01
  MMP-13 expression vs non-treated group: significantly decreased; also recorded: significantly lower
MMP-13; Cal-27 cells, 1, 2.5 or 5 μM PGG, normalized to Histone H3, n=4, p>0.05
  MMP-13 expression vs non-treated group: not significantly different
Stat3; PGG at different concentrations, normalized to Histone H3, n=4, p<0.0001
  Stat3 phosphorylation (pStat3): significantly decreases; also recorded: decrease of Stat3 phosphorylation
Stat3; PGG at varying concentrations, n=4, p<0.0001
  Non-phosphorylated / total Stat3 vs non-treated cells: significantly higher; also recorded: increase in total Stat3
MMP-2 gene; PGG 5 and 10 μM, GAPDH housekeeping, n=4, p<0.0001
  MMP-2 gene expression (mRNA): significantly decreased
MMP-2 gene; PGG 10-20 μM
  MMP-2 gene expression (mRNA) vs non-treated: reduces
MMP-9 gene
  MMP-9 gene expression (mRNA) vs non-treated group: not significantly different; also recorded: did not significantly decrease
MMP-13 gene
  MMP-13 gene expression (mRNA): decreased; also recorded: reduces
MMP-14 gene
  MMP-14 gene expression (mRNA) vs non-treated: reduces
Cal 27 cells; 0.5 μM PGG
  percentage of cells invading the membrane compared with untreated control: 44.5%
Cal 27 cells; 10 μM PGG (maximum effect)
  percentage of cells invading the membrane compared with untreated control: 22.3%
Cal 27 cells; PGG 0.5 and 1 μM, n=4, p<0.001
  Number of cells invading through Matrigel: significantly lower
Cal 27 cells; PGG 2.5, 5 and 10 μM, n=4, p<0.0001
  Number of cells invading through Matrigel: significantly lower
TNF-α
  suppression of LPS-induced TNF-α production: ≤ 90%
[1]
  production of TNF-α and IL-1β: resulted in the production of TNF-α and IL-1β
[2]
  interference with binding of LPS to TLR4: did not interfere
MyD88 adaptor protein
  interaction with MyD88 adaptor protein; effect on TNF-α, IL-1β and IL-6 production: interacted directly with MyD88 adaptor protein thereby decreasing the production of TNF-α, IL-1β and IL-6
